The values below come from patent US8822174B1, “Sterilization indicator for oxidative sterilants” (priority 2013, dated 2014).

This assay relates to Geobacillus stearothermophilus spores. It counts as cell-based. The method, then: Geobacillus stearothermophilus spores are resuspended in potassium ferricyanide concentrations ranging from 0.5 μg/ml to 200 mg/ml in samples having a spore concentration of 1E8 per ml (1×10^8 spores per milliliter). SCBI vials are inoculated with 20 μl (≈2 million spores) of each of the sample suspensions and air dried at least overnight. The SCBIs are then capped and run in a VHP BIER vessel for the times shown in Table 1 below using a 0.8 g injection of 59% hydrogen peroxide.
Geobacillus stearothermophilus spores are resuspended in Prussian blue concentrations ranging from 0.5 μg/ml to 123 mg/ml at a spore concentration of 1E8 per ml. SCBI vials are inoculated with 20 μl (≈2 million spores) of the appropriate suspension and air dried at least overnight. The SCBIs are then capped and run in a VHF) BIER vessel for the times listed below using a 0.8 g injection of 59% hydrogen peroxide.

Several values for one entry are separate records, joined by “and”; a condition that tells them apart may be missing. Equal entries are not always repeated.

As for `[C-]#N.[C-]#N.[C-]#N.[C-]#N.[C-]#N.[C-]#N.[C-]#N.[C-]#N.[C-]#N.[C-]#N.[C-]#N.[C-]#N.[C-]#N.[C-]#N.[C-]#N.[C-]#N.[C-]#N.[C-]#N.[Fe+2].[Fe+2].[Fe+2].[Fe+3].[Fe+3].[Fe+3].[Fe+3]` [Prussian Blue, Prussian blue], the “Killed/Total Samples” value was 0/10 and 8/10 and 3/10 and 7/10* and 1/10* and 6/10* and 2/10* and 10/10; the “grow out results compared with potassium ferricyanide (Table 1)” value was “comparable results”.
